Here are results for two compounds from US10214491B2, “Activators and therapeutic applications thereof” (THE JOHNS HOPKINS UNIVERSITY, priority 2007, dated 2019).

pIC50: −log10 of the molar value.

A word on the pIC50: it is −log10 of the IC50, conventionally taken in molar units.

In one experiment the test system is RPMI7951 (MUTp53). Kind of experiment: WST-1 cell viability assay, RPMI-7951. The class given is cell-based. As to conditions: Homo sapiens, RPMI-7951, 72 h, three days. The protocol:
(§1) The effect of the compounds selected using the screening assay on the viability of several tumor cell lines as well as diploid cell lines and cell strains was studied. Cells were plated in 96-well plates at a density of 10,000 cells/100 μL/well and were incubated overnight. The following day compound dilutions ranging from 0 to 40 μM were applied to the cells in triplicate and the cells were incubated with the compounds for three days. Cell viability was assayed using the WST-1 cell proliferation reagent (Roche Diagnostics, Germany) The WST-1 reagent was diluted 1:10 in cell culture media and 100 μL of the reagent dilution was applied onto cells followed by 1 hour incubation at +37° C. The specific absorbance was measured at 450 nm and a reference absorbance was measured at 690 nm. […] Analysis for Protein Levels
Background: Tetrazolium dyes change colour on reduction, which living cells bring about.

Experiment [1] concerns normal human primary melanocytes. The experiment is described as follows: WST-1 cell viability assay, melanocytes. The class given is cell-based. To be noted: Homo sapiens, 72 h, Melanocyte, three days. The protocol:
as §1

In experiment [2] the test system is Human intestinal endothelial cells. Kind of experiment: WST-1 cell viability assay, intestinal endothelial cells. As to conditions: Endothelial cell, 72 h, three days. Type of experiment: cell-based. The protocol:
as §1

In experiment [3] the test system is p53, Mdm2 and p21 levels in A375 melanoma cells. The experiment is described as follows: Immunoblotting and immunofluorescence for p53, Mdm2 and p21 levels. Type of experiment: cell-based. As to conditions: A375, 24 hours. The protocol:
To study the effect of compounds on endogenous protein levels, A375 melanoma cells were treated with the compounds for 24 hours. Cellular lysates were prepared in lysis buffer containing 0.5% NP-40 with proteinase inhibitors. Protein (20-30 μg) was separated by sodium dodecyl sulphate-polyacrylamide gel electrophoresis (SDS-PAGE) followed by transfer to PVDF membrane (Immobilon™-P, Millipore, Bedford, Mass., USA). Immunoblotting was carried out using DO-1 antibody for p53, 2A10 for Mdm2 and anti-p21 (Becton Dickinson) to detect p21, followed by secondary antibodies conjugated with horseradish peroxidase (p53) or biotin followed by streptavidin-horseradish peroxidase (Mdm2 and p21) after which proteins were detected with enhanced chemiluminescence (ECL, Amersham Life Sciences). Equal protein loading was verified using GAPDH (p9.B.88, Europa Bioproducts Ltd, UK) as a protein loading control.
Immunofluorescence staining was carried out to determine the correct localisation of p53 and to detect H2AX phosphorylation indicative of genotoxic stress. Cells were treated with the compounds and fixed in paraformaldehyde (3.5 PFA, 25 min RT). The coverslips were permeabilised in 0.5% NP-40 and blocked in 3% bovine serum albumin (BSA). p53 was detected by staining with FL-393 antibody (Santa Cruz, 1:50, 1 h at +37° C.) followed by Alexa-594 conjugated secondary antibody (Molecular Probes, 1:200, 1 h at +37° C.), phospho-H2AX was detected by staining with anti-H2AX (P-Ser-139) antibody (Upstate, 1:200 1 h at +37° C.) followed by Alexa-488 conjugated secondary antibody (Molecular Probes, 1:200, 1 h at +37° C.). Nuclei were stained with Hoechst 33342. Images were captured using the Zeiss Axioplan fluorescence microscope equipped with Zeiss AxioCam HRc CCD-camera and AxioVision 4.5 software using 40×, NA=0,75 objective, Chroma 31000, Chroma41001 and 41004 filters for Hoechst, Alexa488 and Alexa594, respectively.
For orientation: A western blot detects proteins with antibodies after separation by electrophoresis.

In another experiment the test system is A375 melanoma cells. The experiment is described as follows: Flow cytometry cell cycle and apoptosis analysis. Type of experiment: cell-based. The protocol:
Cell cycle analysis and cellular apoptosis was assayed with flow cytometry (LSR, Beckton Dickinson). Cells were treated with the compounds and both floating and adherent cells were harvested and fixed in 70% ethanol at −20° C. followed by staining of DNA with propidium iodide. A total of 10,000 counts were collected and data was analysed using ModFit LT 3.1 software. Cells present in sub-G1 population were regarded as apoptotic.
In general terms: In flow cytometry, cells or beads pass a laser one at a time.

Experiment [4] relates to BC3-luc pleural effusion lymphoma cells. Kind of experiment: Orthotopic xenograft model of pleural effusion lymphoma. Type of experiment: in vivo. To be noted: NOD-SCID mice. The protocol: An orthotopic xenograft model of pleural effusion lymphoma was used to assess the anti-tumor activities of compounds 15, 21 and 22. Female NOD-SCID mice (Charles River, France) were injected intraperitoneally with pleural effusion lymphoma cells carrying a stable NF-kappaB regulated luciferase reporter (BC3-luc cells) (Keller et al., 2006). The tumors were allowed to establish for three days after which the mice were imaged and divided into treatment (groups 4-5 mice per group). The compound treatments were initiated on day four. The mice received 2 mg/kg (cmp21) or 20 mg/kg (cmp15 and 22) every other/third day for seven times via i.p. injections, control mice received DMSO only. The mice were imaged prior to each compound injection. Imaging was carried out with Xenogen In Vivo Imaging System (IVIS), D-luciferin (Synchem OHG, Germany) was injected intraperitoneally (100 mg/kg) 10-15 min prior to each imaging. Quantitation was done using Igor Pro Carbon analysis software, bioluminescence was quantitated and plotted as total flux within a given ROI.

Turning to `CN(C)CCNC(=O)c1cccn2c(=O)c3cc4ccccc4cc3nc12` [Compound 21], the pIC50 in the experiment on RPMI7951 (MUTp53) was 5.52; in experiment [1], under 4.40; in experiment [2], 5.57. Moreover, in experiment [3] (0.5 μM), the Mdm2 induction result is recorded as “most prominent”. The “induction of p21 cyclin kinase inhibitor” value in experiment [3] (0.5 μM) was “most prominent”. Moreover, the “cell cycle / apoptosis phenotype” value in the experiment on A375 melanoma cells (A375, 0.1 μM (three days) and 0.5 μM (six days)) is “G2-phase arrest and apoptosis”. In experiment [4] (2 mg/kg i.p. seven times), the “inhibition of tumor cell growth (bioluminescence)” value is “did not have any effect”.
For `Cc1cc(C)c2nc3nc(C)cc(C)c3c(N)c2c1` [Compound 22, 2,4,7,9-tetramethylbenzo[b]-1,8-naphthyridin-5-amine], the results for the pIC50 (in the experiment on RPMI7951 (MUTp53); in experiment [1]; in experiment [2]) were 4.88, 4.49 and 4.84, respectively. In addition, in experiment [3] (5 μM), the Mdm2 induction result is “most prominent”. Also, the “cell cycle / apoptosis phenotype” value in the experiment on A375 melanoma cells (A375, three days at 10 μM or six days at 5 μM) is “G2-phase arrest and apoptosis”. The “inhibition of tumor cell growth (bioluminescence)” value in experiment [4] (20 mg/kg i.p. seven times) is recorded as “noticeable inhibition of the tumor cell growth”.
